Measured values reported in PubChem BioAssay (NCI).
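Cultured in 96-well plates, cells were exposed to test compound for 48 hours across five concentrations. At the GI50, growth is halved. Definition used: TGI = concentration required for complete inhibition of growth.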

Legend:
Experiment in all cases: NCI-60 cell line screen, 48 h
TK-10 renal = tested on: TK-10 renal
KM12 colon = tested on: KM12 colon
PC-3 prostate = tested on: PC-3 prostate
BT-549 breast = tested on: BT-549 breast
OVCAR-5 ovarian = tested on: OVCAR-5 ovarian
SF-268 CNS = tested on: SF-268 CNS
A498 renal = tested on: A498 renal
NCI-H226 lung = tested on: NCI-H226 lung
HS 578T breast = tested on: HS 578T breast
MDA-MB-231 breast = tested on: MDA-MB-231 breast

| SMILES | GI50 (TK-10 renal) | TGI (TK-10 renal) | GI50 (KM12 colon) | TGI (KM12 colon) | GI50 (PC-3 prostate) | TGI (PC-3 prostate) | GI50 (BT-549 breast) | TGI (BT-549 breast) | GI50 (OVCAR-5 ovarian) | TGI (OVCAR-5 ovarian) | GI50 (SF-268 CNS) | TGI (SF-268 CNS) | TGI (A498 renal) | TGI (NCI-H226 lung) | TGI (HS 578T breast) | TGI (MDA-MB-231 breast) | GI50 (HS 578T breast) | GI50 (MDA-MB-231 breast) | GI50 (A498 renal) | GI50 (NCI-H226 lung) |
| --- | --- | --- | --- | --- | --- | --- | --- | --- | --- | --- | --- | --- | --- | --- | --- | --- | --- | --- | --- | --- |
| CN(C)C(=O)c1cnc2oc3ccc(O)cc3c2c1-c1ccccc1 | > 25 µM | > 25 µM | > 25 µM | > 25 µM | 16.6 µM | > 25 µM | 6.2 µM | > 25 µM | 6.94 µM | > 25 µM | 20.2 µM | > 25 µM |  |  |  |  |  |  |  |  |
| COC(=O)C(CC1=C(O)Nc2ccccc2N1)/C(=N/NC(N)=O)C(=O)Nc1ccccc1C (stereo not drawn) |  | > 100 µM |  | > 100 µM |  |  |  |  |  | > 100 µM |  | 45.2 µM | > 100 µM | > 100 µM |  |  |  |  |  |  |
| CCN(CC)c1oc(N(CC)CC)c(C(=O)Nc2ccccn2)c(=O)c1C(C)=O |  | > 100 µM |  | > 100 µM |  |  |  |  |  | > 100 µM |  | > 100 µM | > 100 µM | > 100 µM |  |  |  |  |  |  |
| CN(C)C(=O)c1ccc([N+](=O)[O-])cc1 |  | > 100 µM |  | > 100 µM |  |  |  |  |  | > 100 µM |  | > 100 µM | > 100 µM | > 100 µM |  |  |  |  |  |  |
| Oc1c(Cl)c(Cl)c(O)c2c1CCCC2 |  | 9.14 µM |  | 30.2 µM |  | 36.7 µM |  | 28.1 µM |  |  |  | 24.8 µM | 33.1 µM |  | 49.2 µM | 41.9 µM |  |  |  |  |
| O=C(O)C(CS)NCc1c2ccccc2nc2ccccc12 (stereo not drawn) |  | > 100 µM |  | > 100 µM |  |  |  |  |  | > 100 µM |  | > 100 µM |  | > 100 µM |  |  |  |  |  |  |
| CC(=O)O[C@H]1CCC2[C@@H]3CCC4c5nonc5CC[C@]4(C)C3CC[C@@]21C (stereo partly drawn) |  | > 10 µM | > 100 µM | > 100 µM |  |  |  |  | > 100 µM | > 100 µM |  | > 10 µM | > 10 µM | > 10 µM |  |  |  |  |  |  |
| O=C(N/C(=C\c1ccc(/C=C(\NC(=O)c2ccccc2)c2nc3ccccc3[nH]2)cc1)c1nc2ccccc2[nH]1)c1ccccc1 |  | > 100 µM |  |  |  |  |  |  |  | > 100 µM |  | > 100 µM | > 100 µM |  |  |  |  |  |  |  |
| [O-]c1ccccc1/C=N/C(/N=C/c1ccccc1[O-])c1ccccc1O.[O-]c1ccccc1/C=N/C(/N=C/c1ccccc1[O-])c1ccccc1O.[Zr+4] | 43.6 µM | > 100 µM | 38.6 µM | > 100 µM | 50.9 µM | > 100 µM |  |  | 30 µM | > 100 µM | 28 µM | > 100 µM |  |  | 60 µM | > 100 µM | 12.5 µM | 58.2 µM |  |  |
| Cc1nn(-c2ccc(Cl)cc2)c2nc3c(nc12)C(=O)C(=O)c1ccccc1-3 |  |  | 3.76 µM | 15.6 µM | 2.31 µM | > 100 µM | 1.57 µM | 4.76 µM | 12 µM | > 100 µM | 12.4 µM | > 100 µM | 2.96 µM | 30.1 µM | 5.5 µM | 66.3 µM | 2.08 µM | 4.31 µM | 1.27 µM | 7.65 µM |
| CCSc1nc(SCC)c2c(-c3ccc(OC)c(OC)c3)c(C#N)c(SCC)nc2n1 | 17.5 µM | 53.3 µM | 43.1 µM | > 100 µM | 26.6 µM | > 100 µM | 23.5 µM | > 100 µM | 18.8 µM | 47.7 µM | 14.2 µM | 77.4 µM |  | 54.6 µM | 19.7 µM | 42 µM | 3 µM | 13 µM |  | 20.5 µM |
| CC(=O)[CH-]C(=O)c1ccccc1.CC(=O)[CH-]C(=O)c1ccccc1.CC(=O)[CH-]C(=O)c1ccccc1.[In+3] | > 100 µM | > 100 µM | 61.7 µM | > 100 µM |  |  |  |  | 42.7 µM | > 100 µM | 19.9 µM | > 100 µM | 56.8 µM | 84.3 µM |  |  |  |  | 23.2 µM | 24.7 µM |
| O=C1/C(=N\O)S(=O)(=O)c2ccccc21 |  | > 100 µM |  | > 100 µM |  |  |  |  |  | > 100 µM |  | > 100 µM | > 100 µM | > 100 µM |  |  |  |  |  |  |
| C[C@]12CC[C@@H]3c4ccc(O)cc4CC[C@H]3[C@@H]1Cc1cnc(N)nc12 | 18.9 µM | 42.7 µM | 11.8 µM | 26.8 µM | 15.7 µM | 35.9 µM | 18.7 µM | 53.2 µM | 28.9 µM | 76.1 µM | 13.5 µM | 38.8 µM |  | 33.8 µM | 40.7 µM | 32.8 µM | 18.4 µM | 13.7 µM |  | 15.2 µM |
| CCc1cccc(C)c1NC(=O)C1=C(C)NC(C)=C(C(=O)Nc2c(C)cccc2CC)C1c1ccc2c(c1)OCO2 |  | 80.1 µM |  | 30.9 µM |  |  |  |  |  | 44.5 µM |  | 59.5 µM | 34.6 µM | 49.5 µM |  |  |  |  |  |  |
| COc1ccc(CC(=O)c2ccc(O)cc2O)cc1 |  |  | > 100 µM | > 100 µM | 41.1 µM | > 100 µM | 66.2 µM | > 100 µM | > 100 µM | > 100 µM | 94.5 µM | > 100 µM | > 100 µM | > 100 µM | > 100 µM | > 100 µM | > 100 µM | > 100 µM | 29.3 µM | > 100 µM |
| CCc1ccccc1NC(=O)/C(N=O)=C(/C)O |  | > 100 µM |  | > 100 µM |  |  |  |  |  |  |  | > 100 µM | > 100 µM | > 100 µM |  |  |  |  |  |  |
| COc1cc([N+](=O)[O-])c(OC)cc1-c1nc2sccn2c1/C=N/N=C(N)N | 18 µM | 50.6 µM | 4.36 µM | > 100 µM | 24.2 µM | > 100 µM | 18.6 µM | 42.2 µM | 53.8 µM | > 100 µM | 4.86 µM | 35.3 µM | 66.5 µM |  | 43.9 µM | 69.5 µM | 19 µM | 24.2 µM | 27.4 µM |  |
| O=C(NC(=Nc1ccccc1)SCCSC(=Nc1ccccc1)NC(=O)c1cccs1)c1cccs1 |  | > 100 µM |  | > 100 µM |  |  |  |  |  | > 100 µM |  |  | > 100 µM | > 100 µM |  |  |  |  |  |  |
